These are literature values, as cited in US20140023726A1, “POLYMORPHISMS PREDICTIVE OF PLATINUM-COORDINATING COMPLEX INDUCED OTOTOXICITY” (The University of British Columbia, priority 2006, published 2014).

Structures are written as SMILES. Like-named read-outs stand apart in the source and are kept apart here.

Turning to `N.N.[Cl][Pt][Cl]` [cisplatin, trans-diaminedichloro-platinum(II)], the “Permanent hearing loss, frequency in patients” value was 48% (children less than 5, standard doses of cisplatin) and 25% (patients receiving standard doses of cisplatin).
